US8980891B2, “Crystalline forms of certain 3-phenyl-pyrazole derivatives as modulators of the 5-HT2A serotonin receptor useful for the treatment of disorders related thereto” (Arena Pharmaceuticals, Inc., priority 2009, dated 2015)
Each block holds one molecule with its values, some of them ahead of it.

Columns and labels:
[1] = slurry of the anhydrous form in water; format: physicochemical; conditions: stirred at about 26-28° C. for ~3 days
Experimental: A slurry of anhydrous 4-(2-(4-(3-methoxybenzamido)-2-(1-methyl-1H-pyrazol-5-yl)phenoxy)ethyl)morpholin-4-ium chloride in water was stirred at ambient/stir plate temperature (about 26-28° C.) for ˜3 days.

[2] = system: DOCA-salt induced hypertension; conditions: rats; cited from earlier work
glaucoma patients = conditions: cited from earlier work
JC virus = conditions: cited from earlier work
5-HT2A = 5-HT2A (Homo sapiens, UniProt P28223); conditions: cited from earlier work
heatstroke = conditions: in vivo; cited from earlier work
[3] = system: spontaneously hypertensive rats; conditions: cited from earlier work
diabetic nephropathy = conditions: trial of 24 months of treatment; cited from earlier work
thermal induced pain = conditions: rats, intraperitoneal administration; cited from earlier work
inflammatory pain = conditions: rats, intrathecal or intraperitoneal administration; cited from earlier work
[4] = system: lower back pain, leg pain and numbness associated with sciatica; conditions: humans; cited from earlier work

5-HT2A, sequence (P28223 whole entry, species assumed): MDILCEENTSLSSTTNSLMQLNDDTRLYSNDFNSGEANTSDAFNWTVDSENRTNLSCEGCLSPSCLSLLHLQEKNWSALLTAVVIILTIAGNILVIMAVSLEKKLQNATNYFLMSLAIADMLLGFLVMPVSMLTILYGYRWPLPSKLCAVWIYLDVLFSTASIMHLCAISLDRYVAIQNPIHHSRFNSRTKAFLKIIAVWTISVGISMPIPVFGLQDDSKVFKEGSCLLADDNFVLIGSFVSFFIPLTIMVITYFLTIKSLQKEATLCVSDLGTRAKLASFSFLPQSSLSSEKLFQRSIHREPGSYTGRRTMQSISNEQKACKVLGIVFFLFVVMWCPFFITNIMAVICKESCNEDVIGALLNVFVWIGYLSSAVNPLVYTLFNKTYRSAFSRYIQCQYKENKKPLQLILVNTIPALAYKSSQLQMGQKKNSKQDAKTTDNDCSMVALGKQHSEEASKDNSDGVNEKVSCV

solid form recovered after slurry in water [1]: anhydrous form was recovered
Structure (SMILES): COc1cccc(C(=O)Nc2ccc(OCCN3CCOCC3)c(-c3ccnn3C)c2)c1.Cl [Example 1, 4-(2-(4-(3-Methoxybenzamido)-2-(1-methyl-1H-pyrazol-5-yl)phenoxy)ethyl)morpholin-4-ium chloride]

Structure (SMILES): CN1CCN2c3ccccc3Cc3ccccc3C2C1 (centres unmarked) [Mainserin]
DOCA-salt induced hypertension [2]: prevent

Structure (SMILES): O=C(c1ccc(F)cc1)C1CCN(CCn2c(=O)[nH]c3ccccc3c2=O)CC1 [ketanserin]
IOP (glaucoma patients): significantly lower
JC virus infection of human glial cells (JC virus): inhibited
activity at 5-HT2A (5-HT2A): inverse agonist activity
protection against circulatory shocks, intracranial hypertension, and cerebral ischemia during heatstroke (heatstroke): protect
blood pressure [3]: stabilize

Structure (SMILES): Cc1nc2sccn2c(=O)c1CCN1CCC(=C(c2ccc(F)cc2)c2ccc(F)cc2)CC1 [ritanserin]
JC virus infection of human glial cells (JC virus): inhibited
activity at 5-HT2A (5-HT2A): inverse agonist activity

Structure (SMILES): COc1cccc(CCc2ccccc2OCC(CN(C)C)OC(=O)CCC(=O)O)c1 (centres unmarked) [sarpogrelate]
urinary albumin excretion level (diabetic nephropathy): significantly reduced
IOP (glaucoma patients): significantly lower
analgesic effect on thermal induced pain (thermal induced pain): significant analgesic effect
analgesic effect on inflammatory pain (inflammatory pain): significant analgesic effect
treatment for lower back pain, leg pain and numbness associated with sciatica brought on by lumbar disc herniation [4]: effective treatment
